Test results published in PubChem BioAssay AID2060504 (Molecular Pharmacology Branch, DTP, NCI, 2025).
pIC50: −log10 of the molar value.

Test system: 636577-100-R-J1-PDC complex spheroid viability
Assay: Anticancer human tumor 636577-100-R-J1-PDC patient-derived endometrial adenocarcinoma cell line growth inhibition [GQUAD]
Settings: for pIC50: curve of first compound; for viability, T/C: stronger effect = lower value
Text: DNA G-quadruplex Stabilizer Agents in Combinations in Complex Spheroids
A high-throughput screen of multi-cell type tumor spheroids was designed to identify active combinations of DNA G-quadruplex stabilizer agents and targeted small molecules. Complex spheroids include a stromal component modeled by human endothelial cells (HUVEC) and fibroblasts modeled by human mesenchymal stem cells (MSCs). The concentration ranges selected for each drug and investigational agent were based upon clinically achievable concentrations if the clinical Cmax of the agent was known.
Compounds. The drugs and investigational agents: pidnarulex (CX-5461; NSC782164), APTO-253 (NSC789042), BRACO-19 (NSC847499), peposertib (NSC802822), ceralasertib (NSC780249), elimusertib (NSC800525), camonsertib (NSC841442), AZD-1390 (NSC803789), olaparib (NSC753686), talazoparib (NSC767125), ART-558 (NSC835418), sotorasib (NSC818433), MRTX-1133 (NSC836407), SN-38 (NSC673596), topotecan (NSC609699), etoposide (NSC141540), doxorubicin (NSC123127), gemcitabine (NSC613327), 5-fluorouracil (NSC19893), paclitaxel (NSC125973), vemurafenib (NSC761431), panobinostat (NSC761190), R-306465 (JNJ-16241199; NSC773264), adavosertib (NSC754352), TP-3654 (NSC805149), carboplatin (NSC241240), KSQ-4279 (NSC840948), and staurosporine (NSC755774) were obtained from the National Cancer Institute (NCI) Developmental Therapeutics Program Chemical Repository (34). The FDA-approved anticancer drug set is available from the NCI Developmental Therapeutics Program. […] The stock solutions were prepared in dimethyl sulfoxide (DMSO, Sigma-Aldrich, St. Louis, MO, cat. D2650) at 800-fold the tested concentration and stored at -70 degrees C prior to their use. All drugs and investigational agents were tested over a range starting from a high concentration at or near the clinical Cmax and decreasing in half-log increments. If the clinical Cmax for an agent had not been determined, the highest concentration tested was 10 microM.
2.3 Cell Culture. All cells were maintained in an incubator at 37 degrees C and 5% CO2 with 95% humidity. The PDC lines were cultured according to standard operating procedures established by the NCI PDMR. All PDCs were thawed and cultured in Matrigel-coated flasks prepared with a working solution of 1X Ham's F-12 nutrient mix, without supplementation (Invitrogen, cat. 11765054), 100 U/mL penicillin-streptomycin (Invitrogen, cat. 15140122), and 2.5% Matrigel (Corning Inc., cat. 354248) for the first three passages. The 857933-349-R-J2-PDC line was cultured in 6C/Colon 1B media, which includes advanced DMEM/F-12 (Thermo Fisher Scientific, cat. 12634028), 10 mM HEPES (Thermo Fisher Scientific, cat. 15630080), 1X GlutaMAX supplement (Thermo Fisher Scientific, cat. 35050061), 0.1 mg/mL primocin (InvivoGen, cat. ant-pm-2), 10% defined fetal bovine serum, heat inactivated (HyClone Laboratories Inc., cat. SH30070.03HI), 50% L-WRN conditioned media (ATCC, cat. CRL-3276), 1.25 mM N-Acetyl-L-cysteine (Sigma-Aldrich, cat. A9165), 10 mM nicotinamide (Sigma-Aldrich, cat. N0636), 1X B-27 supplement (Thermo Fisher Scientific, cat. 17504044), 1X N-2 supplement (Thermo Fisher Scientific, cat. 17502048), 10 microM Y-27632 dihydrochloride (Tocris Bioscience, cat. 1254), and 50 ng/mL human EGF recombinant protein (Thermo Fisher Scientific, cat. PHG0311). The 485176-168-R4-J1-PDC line was cultured in Panc media, which includes all 6C/Colon 1B media components plus 100 ng/mL human FGF-10 (Thermo Fisher Scientific, cat. 100-26), 500 nM SB-431542 (Selleckchem, cat. S1067), and gastrin (Tocris, cat. 3006).
[…]

[1] = second compound 0.0316 µM, first compound 0.0316 µM
[2] = second compound 0.0316 µM, first compound 0.1 µM
[3] = second compound 0.0316 µM, first compound 0.316 µM
[4] = second compound 0.0316 µM, first compound 1 µM
[5] = second compound 0.0316 µM, first compound 3.16 µM
[6] = second compound 0.0316 µM, first compound 10 µM
[7] = second compound 0.1 µM, first compound 0.0316 µM
[8] = second compound 0.1 µM, first compound 0.1 µM
[9] = second compound 0.1 µM, first compound 0.316 µM
[10] = second compound 0.1 µM, first compound 1 µM
[11] = second compound 0.1 µM, first compound 3.16 µM
[12] = second compound 0.1 µM, first compound 10 µM
[13] = second compound 0.316 µM, first compound 0.0316 µM
[14] = second compound 0.316 µM, first compound 0.1 µM
[15] = second compound 0.316 µM, first compound 0.316 µM
[16] = second compound 0.316 µM, first compound 1 µM
[17] = second compound 0.316 µM, first compound 3.16 µM
[18] = second compound 0.316 µM, first compound 10 µM
[19] = second compound 1 µM, first compound 0.0316 µM
[20] = second compound 1 µM, first compound 0.1 µM
[21] = second compound 1 µM, first compound 0.316 µM
[22] = second compound 1 µM, first compound 1 µM
[23] = second compound 1 µM, first compound 3.16 µM
[24] = second compound 1 µM, first compound 10 µM
[25] = second compound 3.16 µM, first compound 0.0316 µM
[26] = second compound 3.16 µM, first compound 0.1 µM
[27] = second compound 3.16 µM, first compound 0.316 µM
[28] = second compound 3.16 µM, first compound 1 µM
[29] = second compound 3.16 µM, first compound 3.16 µM
[30] = second compound 3.16 µM, first compound 10 µM
[31] = second compound 10 µM, first compound 0.0316 µM
[32] = second compound 10 µM, first compound 0.1 µM
[33] = second compound 10 µM, first compound 0.316 µM
[34] = second compound 10 µM, first compound 1 µM
[35] = second compound 10 µM, first compound 3.16 µM
[36] = second compound 10 µM, first compound 10 µM
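Also: viability read after seven days of drug exposure.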
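For viability, T/C in this document: luminescence signal used as a proxy for viable cells; 100% = DMSO vehicle control wells.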

Work on `C#Cc1c(F)ccc2cc(O)cc(-c3ncc4c(N5CC6CCC(C5)N6)nc(OCC56CCCN5CC(F)C6)nc4c3F)c12` (centres undefined) + Cc1cnc(CNC(=O)c2c(=O)c3ccc(N4CCCN(C)CC4)nc3n3c2sc2ccccc23)cn1 yielded a pIC50 (second compound 0.0316 µM) of over 7.50, a pIC50 (second compound 0.1 µM) of over 7.50 and a pIC50 (second compound 0.316 µM) of over 7.50. The pIC50 (second compound 1 µM) was over 7.50, the pIC50 (second compound 3.16 µM) was over 7.50 and the pIC50 (second compound 10 µM) was over 7.50. For the same molecule, the viability, T/C [1] was 48.3%, the viability, T/C [2] was 45.1% and the viability, T/C [3] was 46%. For the same molecule, the viability, T/C [4] was 30.9%, the viability, T/C [5] was 38% and the viability, T/C [6] was 28.6%. It also gave a viability, T/C [7] of 31.6%, a viability, T/C [8] of 26.9% and a viability, T/C [9] of 25.8%. The viability, T/C [10] was 21.6%, the viability, T/C [11] was 22.5% and the viability, T/C [12] was 20%. For the same molecule, the viability, T/C [13] was 22.2%, the viability, T/C [14] was 22.6% and the viability, T/C [15] was 25%. The viability, T/C [16] was 18.9%, the viability, T/C [17] was 19.8% and the viability, T/C [18] was 16%. For the same molecule, the viability, T/C [19] was 18.4%, the viability, T/C [20] was 19% and the viability, T/C [21] was 21%. The viability, T/C [22] was 18.1%, the viability, T/C [23] was 15.7% and the viability, T/C [24] was 13.3%. It also gave a viability, T/C [25] of 17.1%, a viability, T/C [26] of 20.5% and a viability, T/C [27] of 19.5%. For the same molecule, the viability, T/C [28] was 17.4%, the viability, T/C [29] was 17% and the viability, T/C [30] was 16.5%. For the same molecule, the viability, T/C [31] was 19.3%, the viability, T/C [32] was 16.1% and the viability, T/C [33] was 20.3%. For the same molecule, the viability, T/C [34] was 17.5%, the viability, T/C [35] was 19.7% and the viability, T/C [36] was 16.2%.

In the case of `COc1ncnc(C2CC2)c1-c1ncc2cnn(Cc3ccc(-c4nc(C(F)(F)F)cn4C(C)C)cc3)c2n1` + Cc1cnc(CNC(=O)c2c(=O)c3ccc(N4CCCN(C)CC4)nc3n3c2sc2ccccc23)cn1, the pIC50 (second compound 0.0316 µM) was over 7.50, the pIC50 (second compound 0.1 µM) was over 7.50 and the pIC50 (second compound 0.316 µM) was over 7.50. It also gave a pIC50 (second compound 1 µM) of over 7.50, a pIC50 (second compound 3.16 µM) of over 7.50 and a pIC50 (second compound 10 µM) of over 7.50. For the same molecule, the viability, T/C [1] was 37.8%, the viability, T/C [2] was 36% and the viability, T/C [3] was 42.7%. For the same molecule, the viability, T/C [4] was 32.1%, the viability, T/C [5] was 37.7% and the viability, T/C [6] was 31.4%. For the same molecule, the viability, T/C [7] was 29.7%, the viability, T/C [8] was 26.2% and the viability, T/C [9] was 29.4%. The viability, T/C [10] was 25.2%, the viability, T/C [11] was 28% and the viability, T/C [12] was 27.4%. It also gave a viability, T/C [13] of 24.2%, a viability, T/C [14] of 24.7% and a viability, T/C [15] of 25.8%. For the same molecule, the viability, T/C [16] was 21.6%, the viability, T/C [17] was 25.2% and the viability, T/C [18] was 24.5%. For the same molecule, the viability, T/C [19] was 19.5%, the viability, T/C [20] was 18.5% and the viability, T/C [21] was 22%. For the same molecule, the viability, T/C [22] was 20.4%, the viability, T/C [23] was 25.4% and the viability, T/C [24] was 22.6%. The viability, T/C [25] was 16.3%, the viability, T/C [26] was 21.4% and the viability, T/C [27] was 22.7%. The viability, T/C [28] was 17.4%, the viability, T/C [29] was 25.9% and the viability, T/C [30] was 19.2%. It also gave a viability, T/C [31] of 20.8%, a viability, T/C [32] of 20% and a viability, T/C [33] of 23.5%. It also gave a viability, T/C [34] of 18.3%, a viability, T/C [35] of 23.7% and a viability, T/C [36] of 22%.
